Read-outs that look alike come from different tables or passages of the source.
Legend:
[1] = test system: LDL; test: Inhibitory effect on oxidative modification of LDL (copper-induced, TBA reactive substances); type: biochemical, New Zealand albino rabbits; conditions: rabbit LDL 0.2 mg protein/ml, 0.5 μM Cu^2+, 37° C., 24 hours; read-out: Inhibition of LDL oxidation IC50
Protocol: Inhibitory effect on oxidative modification of LDL
According to the method by Kita et al. (Proc. Natl. Acad. Sci., U.S.A, Vol. 84, 5928 (1987)), the experiment was proceeded as follows.
LDL was isolated from the blood of New Zealand albino rabbits fed with a diet containing 0.5% cholesterol for 3 weeks, and dissolved in phosphate-buffered physiological saline (final LDL concentration: 0.2 mg protein/ml). To this solution, each test compound in ethanol was added and then copper sulfate (final Cu^2+ concentration: 0.5 μM) was added thereto. The mixture was incubated at 37° C. for 24 hours.
After incubation, the content of lipid peroxides in each solution was determined as thiobarbituric acid reactive substances (TBA reactive substances). Concentration for 50% inhibition (IC50) was obtained from a linear regression curve of concentration of a compound versus % inhibition of oxidative modification of LDL. To quantify TBA reactive substances, proteins were removed from the solution after incubation, and the supernatant was examined for the content of TBA reactive substances by TBA method.

[2] = test system: cholesterol in serum; test: Hypocholesterolemic effect in cholesterol-fed mice; type: in vivo, Male ICR mice; conditions: Mus musculus, po, 168 h, diet 1% cholesterol and 0.5% sodium cholate with 0.12% test compound, 7 days
Protocol: Hypocholesterolemic effect
Male ICR mice weighing 30 to 40 g were allowed to access to a diet containing 1% cholesterol and 0.5% sodium cholate supplemented with 0.12% of a test compound (no test compound in control group) ad libitum for 7 days. Then, the blood was taken and total cholesterol in serum was determined by the method of Allain (Clin. Chem., Vol. 20, 470 (1974)).
Total amount of VLDL cholesterol and LDL cholesterol was obtained by subtracting HLD cholesterol from total cholesterol. HLD cholesterol was quantified by the method of Ash and Hentschel et al. (Clin. Chem., Vol. 24, 2180 (1978)).
Hypocholesterolemic effect of a test compound was evaluated based on % reduction in cholesterol calculated using the equation shown below.

[3] = serum, read-out: Total Chol. reduction (%)
[4] = total minus HDL cholesterol, read-out: (VLDL + LDL) Chol. reduction (%)

| Compound | IC50 [1] [µM] | inhibition in vivo at 0.12 % in diet [2, 3] [%] | inhibition in vivo at 0.12 % in diet [2, 4] [%] |
| --- | --- | --- | --- |
| CCC(CC)CC(=O)c1c(C(=O)OC)c(-c2ccc(OC)c(OC)c2)c2sccc2c1O [Example 15, 7-(3,4-Dimethoxyphenyl)-5-(3-ethyl-1-oxopentyl)-4-hydroxy-6-(methoxycarbonyl)benzo[b]thiophene] | 7.9 | 23 | 43 |
| CCC(=O)c1c(C(=O)OC)c(-c2ccc(OC)c(OC)c2)c2c(OC)c(OC)c(OC)cc2c1O [Example 16, 1-(3,4-Dimethoxyphenyl)-4-hydroxy-2-methoxycarbonyl-3-(1-oxopropyl)-6,7,8-trimethoxynaphthalene] | 1.85 | 26 | 56 |
| COC(=O)c1c(C(=O)c2ccccc2OC)c(O)c2cc(OC)c(OC)c(OC)c2c1-c1ccc(OC)c(OC)c1 [Example 20, 1-(3,4-Dimethoxyphenyl)-4-hydroxy-3-(2-methoxybenzoyl)-2-methoxycarbonyl-6,7,8-trimethoxynaphthalene] | 2.5 | 14 | 63 |
| COC(=O)c1c(C(=O)c2ccc(Cl)cc2)c(O)c2cc(OC)c(OC)c(OC)c2c1-c1ccc(OC)c(OC)c1 [Example 23, 3-(4-Chlorobenzoyl)-1-(3,4-dimethoxyphenyl)-4-hydroxy-2-methoxycarbonyl-6,7,8-trimethoxynaphthalene] | 1.42 | 28 | 74 |
| COC(=O)c1c(C(=O)c2ccc3ccccc3c2)c(O)c2cc(OC)c(OC)c(OC)c2c1-c1ccc(OC)c(OC)c1 [Example 25, 1-(3,4-Dimethoxyphenyl)-4-hydroxy-2-methoxycarbonyl-3-(2-naphthoyl)-6,7,8-trimethoxynaphthalene] | 2.07 | 16 | 59 |
| COC(=O)c1c(C(=O)c2ccc(C(F)(F)F)cc2)c(O)c2cc(OC)c(OC)c(OC)c2c1-c1ccc(OC)c(OC)c1 [Example 28, 1-(3,4-Dimethoxyphenyl)-4-hydroxy-2-methoxycarbonyl-3-[4-(trifluoromethyl)benzoyl]-6,7,8-trimethoxynaphthalene] | 1.52 | 22 | 61 |
| COC(=O)c1c(C(=O)c2ccc(C(C)(C)C)cc2)c(O)c2cc(OC)c(OC)c(OC)c2c1-c1ccc(OC)c(OC)c1 [Example 30, 3-[4-(t-Butyl)benzoyl]-1-(3,4-dimethoxyphenyl)-4-hydroxy-2-methoxycarbonyl-6,7,8-trimethoxynaphthalene] | 2 | 7 | 44 |
| CCC(CC)CC(=O)c1c(C(=O)OC)c(-c2ccc(OC)c(OC)c2)c2cc3c(cc2c1O)OCCO3 [Example 36, 1-(3,4-Dimethoxyphenyl)-6,7-ethylenedioxy-3-(3-ethyl-1-oxopentyl)-4-hydroxy-2-(methoxycarbonyl)naphthalene] | 2.21 | 21 | 49 |
| CCC(=O)c1c(C(=O)OC)c(-c2ccc(OC)c(OC)c2)c2cc(OC(C)C)c(OC(C)C)cc2c1O [Example 38, 6,7-Bis(2-propyloxy)-1-(3,4-dimethoxyphenyl)-4-hydroxy-2-methoxycarbonyl-3-(1-oxopropyl)naphthalene] | 2.1 | 26 | 61 |
| COC(=O)c1c(C(=O)c2ccc(C(F)(F)F)cc2)c(O)c2cc(OC(C)C)c(OC(C)C)cc2c1-c1ccc(OC)c(OC)c1 [Example 40, 6,7-Bis(2-propyloxy)-1-(3,4-dimethoxyphenyl)-4-hydroxy-2-methoxycarbonyl-3-[4-(trifluoromethyl)benzoyl]naphthalene] | 4.29 | 23 | 56 |
| CCC(=O)c1c(C(=O)OC)c(-c2ccc(OC)cc2OC)c2c(OC)c(OC)c(OC)cc2c1O [Example 41, 1-(2,4-Dimethoxyphenyl)-4-hydroxy-2-methoxycarbonyl-3-(1-oxopropyl)-6,7,8-trimethoxynaphthalene] | 17 | 11 | 41 |
| CCC(CC)CC(=O)c1c(C(=O)OC)c(-c2ccc(OC)cc2OC)c2c(OC)c(OC)c(OC)cc2c1O [Example 42, 1-(2,4-Dimethoxyphenyl)-3-(3-ethyl-1-oxopentyl)-4-hydroxy-2-methoxycarbonyl-6,7,8-trimethoxynaphthalene] | 1.68 | 5 | 26 |
| COC(=O)c1c(C(=O)c2ccc(C(F)(F)F)cc2)c(O)c2cc(OC)c(OC)c(OC)c2c1-c1ccc(OC)cc1OC [Example 43, 1-(2,4-Dimethoxyphenyl)-4-hydroxy-2-methoxycarbonyl-3-[4-(trifluoromethyl)benzoyl]-6,7,8-trimethoxynaphthalene] | 2.12 | 15 | 59 |
| COC(=O)c1c(C(=O)c2ccc(C(F)(F)F)cc2)c(O)c2cc3c(cc2c1-c1ccc(OC)cc1OC)OCO3 [Example 46, 1-(2,4-Dimethoxyphenyl)-4-hydroxy-2-methoxycarbonyl-6,7-methylenedioxy-3-[4-(trifluoromethyl)benzoyl]naphthalene] | 6.2 | 5 | 47 |

Now from value to compound, other results behind:

| IC50 [1] [µM] | Compound | inhibition in vivo at 0.12 % in diet [2, 3] [%] | inhibition in vivo at 0.12 % in diet [2, 4] [%] |
| --- | --- | --- | --- |
| 1 | COC(=O)c1c(C(=O)c2cccc(C)c2)c(O)c2cc(OC)c(OC)c(OC)c2c1-c1ccc(OC)c(OC)c1 [Example 18, 1-(3,4-Dimethoxyphenyl)-4-hydroxy-2-methoxycarbonyl-3-(3-methylbenzoyl)-6,7,8-trimethoxynaphthalene] | 13 | 66 |
| 1.05 | COC(=O)c1c(C(=O)c2ccc(C)cc2)c(O)c2cc(OC)c(OC)c(OC)c2c1-c1ccc(OC)c(OC)c1 [Example 19, 1-(3,4-Dimethoxyphenyl)-4-hydroxy-2-methoxycarbonyl-3-(4-methylbenzoyl)-6,7,8-trimethoxynaphthalene] | 11 | 58 |
| 0.82 | COC(=O)c1c(C(=O)c2ccc(OC)cc2)c(O)c2cc(OC)c(OC)c(OC)c2c1-c1ccc(OC)c(OC)c1 [Example 22, 1-(3,4-Dimethoxyphenyl)-4-hydroxy-3-(4-methoxybenzoyl)-2-methoxycarbonyl-6,7,8-trimethoxynaphthalene] | 12 | 60 |
| 0.98 | COC(=O)c1c(C(=O)c2ccc(OC)c(OC)c2)c(O)c2cc(OC)c(OC)c(OC)c2c1-c1ccc(OC)c(OC)c1 [Example 24, 3-(3,4-Dimethoxybenzoyl)-1-(3,4-dimethoxyphenyl)-4-hydroxy-2-methoxycarbonyl-6,7,8-trimethoxynaphthalene] | 11 | 54 |
| 0.79 | COC(=O)c1c(C(=O)c2ccc(F)cc2)c(O)c2cc(OC)c(OC)c(OC)c2c1-c1ccc(OC)c(OC)c1 [Example 26, 1-(3,4-Dimethoxyphenyl)-3-(4-fluorobenzoyl)-4-hydroxy-2-methoxycarbonyl-6,7,8-trimethoxynaphthalene] | 10 | 54 |
| 1.38 | CCCc1ccc(C(=O)c2c(C(=O)OC)c(-c3ccc(OC)c(OC)c3)c3c(OC)c(OC)c(OC)cc3c2O)cc1 [Example 29, 1-(3,4-Dimethoxyphenyl)-4-hydroxy-2-methoxycarbonyl-3-[4-(1-propyl)benzoyl]-6,7,8-trimethoxynaphthalene] | 20 | 42 |
| 0.85 | COC(=O)c1c(C(=O)C(F)(F)C(F)(F)F)c(O)c2cc(OC)c(OC)c(OC)c2c1-c1ccc(OC)c(OC)c1 [Example 31, 1-(3,4-Dimethoxyphenyl)-4-hydroxy-2-methoxycarbonyl-3-(pentafluoro-1-oxopropyl)-6,7,8-trimethoxynaphthalene] | 15 | 41 |
| 1.28 | CCC(=O)c1c(C(=O)OC)c(-c2ccc(OC)c(OC)c2)c2sc(CC)c(OC)c2c1O [Example 56, 7-(3,4-Dimethoxyphenyl)-2-ethyl-4-hydroxy-3-methoxy-6-methoxycarbonyl-5-(1-oxopropyl)benzo[b]thiophene] | 20 | 58 |

Source: patent US5449814A, “Lignan analogues, methods of preparation thereof and anti-hyperlipemic agents” (Shionogi & Co., Ltd., priority 1991, dated 1995)
